Measured values reported in patent EP4810040A2, “INHIBITORS OF APOL1 AND METHODS OF USING SAME” (priority 2020, dated 2022).
Like-named read-outs stand apart in the source and are kept apart here.

Target: T1, APOL1 G1 (Homo sapiens, UniProt O14791, I384M/S342G)
T1 sequence (O14791 28-398 S342G/I384M): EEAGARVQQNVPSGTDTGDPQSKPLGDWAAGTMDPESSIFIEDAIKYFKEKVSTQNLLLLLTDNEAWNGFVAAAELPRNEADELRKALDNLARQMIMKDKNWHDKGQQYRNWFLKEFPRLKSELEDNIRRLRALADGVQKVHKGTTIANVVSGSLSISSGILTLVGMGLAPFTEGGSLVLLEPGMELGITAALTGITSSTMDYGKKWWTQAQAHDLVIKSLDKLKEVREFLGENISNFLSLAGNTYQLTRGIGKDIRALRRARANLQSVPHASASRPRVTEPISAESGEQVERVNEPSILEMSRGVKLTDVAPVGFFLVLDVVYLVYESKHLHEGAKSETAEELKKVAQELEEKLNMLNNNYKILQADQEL
Test: MultiTox-Fluor Multiplex Cytotoxicity Assay, tet-inducible APOL1 G1 T-REx-HEK293 cells
Format: cell-based
Parameters: expressed in transfected cells; host or cells: T-REx HEK293, clone G1 DC3.25 (pAAVS1-Puro-APOL1 G1)
Conditions: for Emax: read-out: Multi-Tox Assay Max Activity (%)
Summary of the method: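 Over 24 h at 37 °C, compounds (10-point 3-fold series from 10 µM, duplicate) were co-incubated with 50 ng/mL tetracycline inducing APOL1 G1 in T-REx-HEK293 cells. Viability/cytotoxicity measured by MultiTox-Fluor as dead-to-live fluorescence ratio, expressed as percent of control between uninduced and induced wells and fitted.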

[1] = HEK293, Multi-Tox Assay, APOL1 variant (G0/G1/G2) of the HEK293 cells not given, read-out: Multi-Tox Assay IC90
[2] = Multi-Tox Assay, APOL1 variant not given
[3] = Multi-Tox Assay, APOL1 variant (G0/G1/G2) not stated in Table 46, read-out: Multi-Tox Assay IC90
[4] = Multi-Tox Assay, APOL1 variant not stated in Table 46

C[C@H]1C[C@@]2(C[C@@H](c3cnn(C4CCS(=O)(=O)C4)c3)N1)OCCc1cc(Cl)sc12 (stereo partly shown) [Compound 97]
IC90 [1]: < 50 nM
Emax: 99%

CC(C)C(=O)NCCn1cc([C@@H]2C[C@]3(C[C@H](C)N2)OC[C@@H](O)c2cc(Cl)sc23)nn1 [Compound 230]
IC90 [1]: > 500 nM
Multi-Tox Assay Max Activity (%) [2]: 98.0%

C[C@H]1C[C@@]2(C[C@@H](c3cn(CC4(CO)CC4)nn3)N1)OCC(F)(F)c1cc(Cl)sc12 [Compound 357]
IC90 [1]: 50 to 500 nM

Cc1nc(Cn2cc([C@@H]3C[C@]4(C[C@H](C)N3)OCC(F)(F)c3cc(Cl)sc34)nn2)oc1C [Compound 337]
IC90 [1]: 50 to 500 nM

C[C@H]1C[C@@]2(C[C@@H](c3cc(C4CCOCC4)[nH]n3)N1)OCCc1cc(Cl)sc12 [Compound 114]
IC90 [1]: 50 to 500 nM
Multi-Tox Assay Max Activity (%) [2]: 99.7%

C[C@H]1C[C@@]2(C[C@@H](c3cn(Cc4ccccc4S(C)(=O)=O)nn3)N1)OCC(F)(F)c1cc(Cl)sc12 [Compound 347]
IC90 [1]: 50 to 500 nM
Multi-Tox Assay Max Activity (%) [2]: 96.0%

C[C@@H]1C[C@]2(C[C@H](C)N1)OCC(O)c1cc(Cl)sc12 (mixture of isomers) [Compound 205, (2R,6S)-2-chloro-2',6'-dimethyl-spiro[4,5-dihydrothieno[2,3-c]pyran-7,4'-piperidine]-4-ol]
IC90 (HEK293, read-out: Multi-Tox Assay IC90 (nM)): 50 to 500 nM
Emax: 99.3%

C[C@H]1C[C@@]2(C[C@@H](c3cccn4ccnc34)N1)OCCc1cc(Cl)sc12 [Compound 143]
IC90 [1]: 50 to 500 nM
Multi-Tox Assay Max Activity (%) [2]: 98.0%

C[C@H]1C[C@@]2(C[C@@H](c3cnc(C4CCOCC4)o3)N1)OCCc1cc(Cl)sc12 (racemic) [Compound 140]
IC90 [1]: 50 to 500 nM
Multi-Tox Assay Max Activity (%) [2]: 99.7%

C[C@H]1C[C@@]2(C[C@@H](c3cnn(-c4ccccc4)c3)N1)OCCc1cc(Cl)sc12 (racemic) [Compound 65]
IC90 [1]: < 50 nM
Emax [2]: 99.5%

CCc1cc2c(s1)C1(C[C@@H](C)N[C@@H](C)C1)OCC2 (single isomer, unassigned) [Compound 199]
IC90 [1]: 50 to 500 nM
Emax [2]: 99.3%

C[C@H]1CC2(C[C@@H](c3cn(C)nn3)N1)OCC(C)(C)c1sc(C(F)(F)F)cc12 (single isomer, unassigned) [Compound 16]
IC90 [1]: 50 to 500 nM
Multi-Tox Assay Max Activity (%) [2]: 100.0%

C[C@H]1C[C@@]2(C[C@@H](c3cn(CC4CCC(=O)NC4)nn3)N1)OC[C@@H](O)c1cc(Cl)sc12 (stereo partly shown) [Compound 254]
IC90 [1]: > 500 nM
Multi-Tox Assay Max Activity (%) [2]: 92.0%

Cc1nocc1[C@@H]1C[C@]2(C[C@H](C)N1)OCCc1cc(Cl)sc12 (racemic) [Compound 132]
IC90 [1]: 50 to 500 nM
Multi-Tox Assay Max Activity (%) [2]: 99.3%

C[C@H]1C[C@@]2(C[C@@H](c3cnc(N4CCN(C)CC4)nc3)N1)OCCc1cc(Cl)sc12 (racemic) [Compound 129]
IC90 [1]: 50 to 500 nM
Multi-Tox Assay Max Activity (%) [2]: 100.0%

C#C[C@@H]1C[C@]2(C[C@H](C)N1)OCC(F)(F)c1cc(Cl)sc12 [Compound 223, (2'S,6'S,7S)-2-chloro-2'-ethynyl-4,4-difluoro-6'-methyl-spiro[5H-thieno[2,3-c]pyran-7,4'-piperidine]]
IC90 [1]: > 500 nM
Emax [2]: 93%

C[C@H]1C[C@@]2(C[C@@H](c3cn(Cc4ccc(C#N)nc4)nn3)N1)OC[C@@H](O)c1cc(Cl)sc12 [Compound 236]
IC90 [1]: 50 to 500 nM
Multi-Tox Assay Max Activity (%) [2]: 100.0%

Cc1c(Cn2cc([C@@H]3C[C@]4(C[C@H](C)N3)OC[C@@H](O)c3cc(Cl)sc34)nn2)cnn1C [Compound 285]
IC90 [1]: 50 to 500 nM
Multi-Tox Assay Max Activity (%) [2]: 98.0%

C[C@H]1C[C@@]2(C[C@@H](c3cn(CCc4ccncn4)nn3)N1)OCC(F)(F)c1cc(Cl)sc12 [Compound 305]
IC90 [1]: 50 to 500 nM
Multi-Tox Assay Max Activity (%) [2]: 100.0%

COc1cc(F)cc(Cn2cc([C@@H]3C[C@]4(C[C@H](C)N3)OCC(F)(F)c3cc(Cl)sc34)nn2)c1 [Compound 333]
IC90 [1]: 50 to 500 nM
Multi-Tox Assay Max Activity (%) [2]: 97.0%

C[C@H]1C[C@@]2(C[C@@H](c3ccc(O)nn3)N1)OCCc1cc(Cl)sc12 [Compound 86]
IC90 [1]: < 50 nM
Emax [2]: 99.5%

COc1ccc([C@@H]2C[C@]3(C[C@H](C)N2)OCCc2cc(Cl)sc23)cn1 (racemic) [Compound 49]
IC90 [1]: < 50 nM
Emax [2]: 99.7%

Cn1cc([C@@H]2C[C@]3(C[C@H](c4ccccc4)N2)OC[C@@H](O)c2cc(Cl)sc23)nn1 [Compound 387, (2'S,4S,6'R,7S)-2-chloro-2'-(1-methyltriazol-4-yl)-6'-phenyl-spiro[4,5-dihydrothieno[2,3-c]pyran-7,4'-piperidine]-4-ol]
IC90 [3]: > 500 nM
Emax [4]: 94%

Cc1nccc([C@@H]2C[C@]3(C[C@H](C)N2)OCCc2cc(Cl)sc23)n1 (racemic) [Compound 116]
IC90 [1]: 50 to 500 nM
Multi-Tox Assay Max Activity (%) [2]: 99.4%

CC1CC2(CC(c3ccc4[nH]ncc4c3)N1)OCCc1cc(Cl)sc12 (stereo not shown) [Compound 35]
IC90 [1]: < 50 nM
Multi-Tox Assay Max Activity (%) [2]: 99.3%

C[C@H]1C[C@@]2(C[C@@H](C3(CO)CC3)N1)OCCc1cc(Cl)sc12 [Compound 380, [1-[(2'S,6'S,7S)-2-chloro-6'-methyl-spiro[4,5-dihydrothieno[2,3-c]pyran-7,4'-piperidine]-2'-yl]cyclopropyl]methanol]
IC90 [3]: 50 to 500 nM

C[C@H]1C[C@@]2(C[C@@H](c3cnc(C(N)=O)cn3)N1)OCCc1cc(Cl)sc12 (racemic) [Compound 63]
IC90 [1]: < 50 nM
Emax [2]: 99.8%

CC1CC2(CC(C(C)C)N1)OCCc1cc(Cl)sc12 (mixture of isomers) [Compound 214]
IC90 [1]: 50 to 500 nM
Emax [2]: 99.3%

CC(C)C1CC2(CC(c3cn(C)nn3)N1)OCCc1cc(C(F)(F)F)sc12 (stereo not shown) [Compound 191]
IC90 [1]: 50 to 500 nM
Emax [2]: 99.7%

C[C@H]1C[C@@]2(C[C@@H](c3cn(CC(C)(C)O)nn3)N1)OCC(F)(F)c1cc(Cl)sc12 [Compound 364]
IC90 [3]: > 500 nM
Multi-Tox Assay Max Activity (%) [4]: 95.0%
IC50 (Multi-Tox Assay, IP50 = IC50 for cell proliferation, APOL1 variant not stated in Table 46): 50 to 500 nM

COCC1CC2(CC(c3cn(C)nn3)N1)OCCc1cc(C(F)(F)F)sc12 (stereo not shown) [Compound 193]
IC90 [1]: 50 to 500 nM
Emax [2]: 99%

C[C@H]1C[C@@]2(C[C@@H](c3cn(Cc4ccc(O)cc4)nn3)N1)OC[C@@H](O)c1cc(Cl)sc12 [Compound 259]
IC90 [1]: 50 to 500 nM
Multi-Tox Assay Max Activity (%) [2]: 100.0%

CC1CC2(CC(c3cn(CC4CC4)nn3)N1)OCCc1cc(Cl)sc12 (stereo not shown) [Compound 122]
IC90 [1]: 50 to 500 nM
Multi-Tox Assay Max Activity (%) [2]: 99.7%

C[C@H]1C[C@@]2(C[C@@H](c3cn(Cc4ccc(CO)cc4)nn3)N1)OCC(F)(F)c1cc(Cl)sc12 [Compound 225, (4-((4-((2S,4S,6S)-2'-chloro-4',4'-difluoro-2-methyl-4',5'-dihydrospiro[piperidine-4,7'-thieno[2,3-c]pyran]-6-yl)-1H-1,2,3-triazol-1-yl)methyl)phenyl)methanol]
IC90 [1]: 50 to 500 nM
Multi-Tox Assay Max Activity (%) [2]: 97.0%

Cc1cc(C)nc(CCn2cc([C@@H]3C[C@]4(C[C@H](C)N3)OCC(F)(F)c3cc(Cl)sc34)nn2)c1 [Compound 351]
IC90 [1]: 50 to 500 nM
Multi-Tox Assay Max Activity (%) [2]: 98.0%

C[C@H]1C[C@@]2(C[C@@H](c3cc(C4CC4)no3)N1)OCCc1cc(Cl)sc12 (racemic) [Compound 87]
IC90 [1]: < 50 nM
Emax [2]: 99.3%

C[C@@H]1CC2(C[C@H](C)N1)OCCc1c2sc(C(F)(F)F)c1CO (single isomer, unassigned) [Compound 208]
IC90 [1]: 50 to 500 nM
Emax [2]: 99.5%

C[C@H]1C[C@@]2(C[C@@H](c3cocn3)N1)OCCc1cc(Cl)sc12 (racemic) [Compound 79]
IC90 [1]: 50 to 500 nM
Emax [2]: 99.7%

Cc1cc(O)ncc1[C@@H]1C[C@]2(C[C@H](C)N1)OCCc1cc(Cl)sc12 (racemic) [Compound 125]
IC90 [1]: 50 to 500 nM
Multi-Tox Assay Max Activity (%) [2]: 99.7%
